Source: patent publication US9211310B2, “Use of a Chinese medicine composition in preparing medicaments for treating secondary prevention of myocardial infarction” (TASLY PHARMACEUTICAL GROUP CO., LTD, priority 2010, dated 2015)

Test system: patients after acute myocardial infarction
Experiment: Life quality, Seattle Angina Questionnaire (SAQ), same clinical trial
Assay type: in vivo, human
Settings: FAS; Baseline
Description: 3508 patients who were in accordance with the diagnostic standards of AMI for 28 days to 2 years and differentiated as Qi deficiency and blood stagnation syndrome by TCM were studied. 0.5 g Chinese medicine composition prepared by the method of EXAMPLE 1 (Coded as QSYQ) was administrated half an hour after meal, 3 times per day.
There were 19 questions in the Seattle angina questionnaire (SAQ), including 5 parts: physical limitation (PL), anginal stability (AS), anginal frequency (AF), treatment satisfaction (TS) and disease perception (DP). After being given necessary explanation by doctors, the questions were answered independently by patients.
They included the overall survival time, angina pectoris score, TCM symptom score and life quality score, where angina pectoris score, TCM symptom score and life quality score were evaluated at randomization, in 1st, 3rd, 6th, 9th, 12th month after treatment and 18th month after follow-up.
All evaluation results of SAQ were described during the period of observation, and Wilcoxon rank sum test was used for inter-group comparison.
The evaluation results in the SAQ were depicted in different observations, and inter-group comparison was tested by Wilcoxon Rank-sum test.

SMILES: CC(=O)Oc1ccccc1C(=O)O [Control group, aspirine]
- 10th question: Mostly satisfied, patients (%): (16.89%)
- 10th question: Partly satisfied, patients (%): (31.19%)
- 11th question: Continuously worried, patients (%): (9.59%)
- 11th question: No worried, patients (%): (4.13%)
- 11th question: Occasionally worried, patients (%): (40.93%)
- 11th question: Often worried, patients (%): (23.88%)
- 11th question: Seldom worried, patients (%): (21.47%)
- SAQ 4th question, 1-2 times per week: % of patients: (19.80%)
- SAQ 4th question, 1-2 times per week: number of patients: 344
- SAQ 4th question, 1-3 times per day: % of patients: (8.64%)
- SAQ 4th question, 1-3 times per day: number of patients: 150
- SAQ 4th question, <1 time per week: % of patients: (10.13%)
- SAQ 4th question, <1 time per week: number of patients: 176
- SAQ 4th question, Not used: % of patients: (43.64%)
- SAQ 4th question, Not used: number of patients: 758
- SAQ 4th question, ≧3 times per week: % of patients: (16.87%)
- SAQ 4th question, ≧3 times per week: number of patients: 293
- SAQ 4th question, ≧4 times per day: % of patients: (0.92%)
- SAQ 4th question, ≧4 times per day: number of patients: 16
- SAQ 5th question, Few: % of patients: (18.88%)
- SAQ 5th question, Few: number of patients: 328
- SAQ 5th question, Mild: % of patients: (30.74%)
- SAQ 5th question, Mild: number of patients: 534
- SAQ 5th question, Moderate: % of patients: (20.50%)
- SAQ 5th question, Moderate: number of patients: 356
- SAQ 5th question, None: % of patients: (23.43%)
- SAQ 5th question, None: number of patients: 407
- SAQ 5th question, Not medicated by doctors: % of patients: (2.99%)
- SAQ 5th question, Not medicated by doctors: number of patients: 52
- SAQ 5th question, Severe: % of patients: (3.45%)
- SAQ 5th question, Severe: number of patients: 60
- SAQ 6th question, Dissatisfied: % of patients: (1.15%)
- SAQ 6th question, Dissatisfied: number of patients: 20
- SAQ 6th question, Highly satisfied: % of patients: (15.33%)
- SAQ 6th question, Highly satisfied: number of patients: 267
- SAQ 6th question, Mostly dissatisfied: % of patients: (6.54%)
- SAQ 6th question, Mostly dissatisfied: number of patients: 114
- SAQ 6th question, Mostly satisfied: % of patients: (45.52%)
- SAQ 6th question, Mostly satisfied: number of patients: 793
- SAQ 6th question, Partly satisfied: % of patients: (31.46%)
- SAQ 6th question, Partly satisfied: number of patients: 548
- SAQ 7th question, Dissatisfied: % of patients: (0.40%)
- SAQ 7th question, Dissatisfied: number of patients: 7
- SAQ 7th question, Highly satisfied: % of patients: (20.40%)
- SAQ 7th question, Highly satisfied: number of patients: 355
- SAQ 7th question, Mostly dissatisfied: % of patients: (4.60%)
- SAQ 7th question, Mostly dissatisfied: number of patients: 80
- SAQ 7th question, Mostly satisfied: % of patients: (47.99%)
- SAQ 7th question, Mostly satisfied: number of patients: 835
- SAQ 7th question, Partly satisfied: % of patients: (26.61%)
- SAQ 7th question, Partly satisfied: number of patients: 463
- SAQ Question 1-1 Mildly limited, number of patients: 34
- SAQ Question 1-1 Mildly limited, percent of patients: (1.95%)
- SAQ Question 1-1 Moderately limited, number of patients: 16
- SAQ Question 1-1 Moderately limited, percent of patients: (0.92%)
- SAQ Question 1-1 Not limited, number of patients: 1582
- SAQ Question 1-1 Not limited, percent of patients: (90.92%)
- SAQ Question 1-1 Other reasons, number of patients: 5
- SAQ Question 1-1 Other reasons, percent of patients: (0.29%)
- SAQ Question 1-1 Severely limited, number of patients: 1
- SAQ Question 1-1 Severely limited, percent of patients: (0.06%)
- SAQ Question 1-1 Slightly limited, number of patients: 102
- SAQ Question 1-1 Slightly limited, percent of patients: (5.86%)
- SAQ Question 1-2 Mildly limited, number of patients: 46
- SAQ Question 1-2 Mildly limited, percent of patients: (2.64%)
- SAQ Question 1-2 Moderately limited, number of patients: 18
- SAQ Question 1-2 Moderately limited, percent of patients: (1.03%)
- SAQ Question 1-2 Not limited, number of patients: 1539
- SAQ Question 1-2 Not limited, percent of patients: (88.45%)
- SAQ Question 1-2 Other reasons, number of patients: 6
- SAQ Question 1-2 Other reasons, percent of patients: (0.34%)
- SAQ Question 1-2 Severely limited, number of patients: 2
- SAQ Question 1-2 Severely limited, percent of patients: (0.11%)
- SAQ Question 1-2 Slightly limited, number of patients: 129
- SAQ Question 1-2 Slightly limited, percent of patients: (7.41%)
- SAQ Question 1-6: Mildly limited, patients (%): (20.89%)
- SAQ Question 1-6: Moderately limited, patients (%): (17.95%)
